Experimental data from ChEMBL document CHEMBL4837239, “Identification of Thieno[3,2-d]pyrimidine Derivatives as Dual Inhibitors of Focal Adhesion Kinase and FMS-like Tyrosine Kinase 3” (J Med Chem, 2021).

Tests used:
HCT-116 = assay: Antiproliferative activity against human HCT-116 cells assessed as growth inhibition measured after 72 hrs by CellTiter-Glo assay; assay type: functional
[1] = Antiproliferative activity against human A375P cells assessed as growth inhibition measured after 72 hrs by CellTiter-Glo assay; assay type: functional
Focal adhesion kinase 1 = Focal adhesion kinase 1 (Homo sapiens, UniProt Q05397); assay: Inhibition of recombinant FAK (unknown origin) by radiometric kinase assay
Sequence of Focal adhesion kinase 1 (Q05397 whole entry): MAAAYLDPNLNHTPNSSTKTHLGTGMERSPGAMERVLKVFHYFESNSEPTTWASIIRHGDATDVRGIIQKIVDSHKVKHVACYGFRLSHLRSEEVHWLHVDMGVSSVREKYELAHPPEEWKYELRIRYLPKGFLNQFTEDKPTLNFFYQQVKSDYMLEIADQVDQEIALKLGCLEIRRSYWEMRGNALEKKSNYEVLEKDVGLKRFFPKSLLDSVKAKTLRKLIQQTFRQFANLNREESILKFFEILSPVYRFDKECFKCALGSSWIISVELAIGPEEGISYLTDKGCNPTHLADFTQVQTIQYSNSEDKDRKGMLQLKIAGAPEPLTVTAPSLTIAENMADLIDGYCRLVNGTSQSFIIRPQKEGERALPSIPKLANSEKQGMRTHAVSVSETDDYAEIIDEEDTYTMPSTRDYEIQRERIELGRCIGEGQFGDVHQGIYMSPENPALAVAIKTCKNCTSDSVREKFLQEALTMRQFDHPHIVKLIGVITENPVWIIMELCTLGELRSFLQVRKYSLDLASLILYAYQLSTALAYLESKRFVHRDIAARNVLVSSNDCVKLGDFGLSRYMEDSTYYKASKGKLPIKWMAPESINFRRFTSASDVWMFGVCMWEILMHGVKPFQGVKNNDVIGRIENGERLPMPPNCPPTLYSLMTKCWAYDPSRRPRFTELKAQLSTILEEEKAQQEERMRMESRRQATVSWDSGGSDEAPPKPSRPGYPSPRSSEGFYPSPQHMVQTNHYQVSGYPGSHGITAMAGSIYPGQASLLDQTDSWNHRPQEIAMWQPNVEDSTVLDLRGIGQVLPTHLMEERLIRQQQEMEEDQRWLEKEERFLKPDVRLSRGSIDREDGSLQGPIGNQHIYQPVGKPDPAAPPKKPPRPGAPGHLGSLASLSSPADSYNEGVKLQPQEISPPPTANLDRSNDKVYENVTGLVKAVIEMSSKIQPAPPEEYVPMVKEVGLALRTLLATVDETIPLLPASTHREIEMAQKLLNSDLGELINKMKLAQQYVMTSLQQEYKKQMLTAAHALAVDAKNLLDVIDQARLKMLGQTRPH

[2] = Metabolic stability in human liver microsomes assessed as compound remaining at 1 uM measured after 1 hr; assay type: ADME, Microsome; settings: read-out: Stabilty
MDA-MB-231 = assay: Antiproliferative activity against human MDA-MB-231 cells assessed as growth inhibition measured after 72 hrs by CellTiter-Glo assay; assay type: functional

Row | SMILES | GI50 (HCT-116; Homo sapiens, HCT-116) [nM] | GI50 ([1]; Homo sapiens, A375P) [nM] | IC50 (Focal adhesion kinase 1) [nM] | remaining at 1 h, 1 µM [2] [%] | GI50 (MDA-MB-231; Homo sapiens, MDA-MB-231) [nM] | GI50 (HCT-116) [nM] | GI50 [1] [nM] | GI50 (MDA-MB-231) [nM]
1 | CCN1CCN(c2ccc(Nc3ncc4scc(-c5cccc(C(=O)NC)c5)c4n3)cc2)CC1 | 300 | 1360 | 36 | 71.1 | 1260 |  |  | 
2 | CCN1CCN(c2ccc(Nc3ncc4scc(-c5cnc6ccccc6c5)c4n3)cc2)CC1 | 370 | 8050 | 29 | 44.1 | 880 |  |  | 
3 | COc1cc(Nc2ncc3scc(-c4ccccc4NS(C)(=O)=O)c3n2)cc(OC)c1OC |  |  | 78 |  |  |  |  | 
4 | COc1cc(Nc2ncc3scc(-c4cccnc4)c3n2)cc(OC)c1OC |  |  | 26 |  |  |  |  | 
5 | CCN1CCN(c2ccc(Nc3ncc4scc(-c5ccccc5[N+](=O)[O-])c4n3)cc2)CC1 | 990 | 1500 | 361 |  | 1010 |  |  | 
6 | CS(=O)(=O)Nc1cccc(-c2csc3cnc(Nc4ccccc4)nc23)c1 |  |  | 30 | 49.6 |  | 2570 | 7520 | 26900
7 | COc1cc(Nc2ncc3scc(-c4ccccc4N(C)S(C)(=O)=O)c3n2)cc(OC)c1OC |  |  | 15 |  |  |  |  | 
8 | CS(=O)(=O)Nc1cccc(-c2csc3cnc(N)nc23)c1 |  |  | 4030 |  |  | 33200 | 43300 | 27800
9 | CN(C)c1ccc(Nc2ncc3scc(-c4cccc(NS(C)(=O)=O)c4)c3n2)cc1 |  |  | 18 | 63.8 |  | 2270 | 3480 | 3320
10 | COc1cc(Nc2ncc3scc(-c4ccccn4)c3n2)cc(OC)c1OC |  |  | 18 |  |  |  |  | 
11 | COc1cc(Nc2ncc3scc(-c4cccc(S(C)(=O)=O)c4)c3n2)cc(OC)c1OC |  |  | 91 |  |  |  |  | 
12 | CNC(=O)c1ccc(Nc2ncc(C(F)(F)F)c(NCc3nccnc3N(C)S(C)(=O)=O)n2)cc1 [DEFACTINIB] | 9130 | 5940 |  |  | 11400 |  |  | 
13 | CS(=O)(=O)Nc1cccc(-c2csc3cnc(NC4CCCCC4)nc23)c1 |  |  | 717 |  |  | 11300 | 17800 | 7730
14 | COc1cc(Nc2ncc3scc(-c4cccc(C(=O)O)c4)c3n2)cc(OC)c1OC |  |  | 49 |  |  |  |  | 
15 | CS(=O)(=O)Nc1cccc(-c2csc3cnc(NC4CC4)nc23)c1 |  |  | 2350 |  |  | 43200 | 36600 | 43500
16 | CCN1CCN(c2ccc(Nc3ncc4scc(-c5ccccc5S(C)(=O)=O)c4n3)cc2)CC1 | 1880 | 4270 | 194 |  | 8820 |  |  | 
17 | CCN1CCN(c2cccc(Nc3ncc4scc(-c5cccc(NS(C)(=O)=O)c5)c4n3)c2)CC1 | 420 | 900 | 13 | 100 | 1420 |  |  | 
18 | COc1cc(Nc2ncc3scc(-c4cccc(N(C)S(C)(=O)=O)c4)c3n2)cc(OC)c1OC |  |  | 35 |  |  |  |  | 
19 | CNC(=O)c1ccccc1-c1csc2cnc(Nc3cc(OC)c(OC)c(OC)c3)nc12 |  |  | 55 |  |  |  |  | 
20 | COc1cc(Nc2ncc3scc(-c4ccccc4S(C)(=O)=O)c3n2)cc(OC)c1OC |  |  | 668 |  |  |  |  | 
21 | CCOC(=O)c1cccc(-c2csc3cnc(Nc4ccc(N5CCN(CC)CC5)cc4)nc23)c1 | 1100 | 1650 | 321 |  | 950 |  |  | 
22 | CCN1CCN(c2ccc(Nc3ncc4scc(-c5cccc(C(=O)O)c5)c4n3)cc2)CC1 | 4350 | 12300 | 59 |  | 4640 |  |  | 
23 | CS(=O)(=O)Nc1cccc(-c2csc3cnc(Nc4ccc(N5CCCCC5)cc4)nc23)c1 |  |  | 68 | 58 |  | 1490 | 2780 | 3380
